Data published in patent US12239643B2, “Therapeutic agent for inflammatory diseases, autoimmune diseases, fibrotic diseases, and cancer diseases” (MEIJI SEIKA PHARMA CO., LTD., priority 2018, dated 2025).

How the values were obtained:
Assay type in all cases: cell-based
IL-13 = experiment: Cytokine suppression using human peripheral blood mononuclear cells: IL-13; conditions: human PBMC, CD3 antibody and CD28 antibody; read-out: IL-13 Inhibitory Activity, Human PBMC (Test Example 4)
Procedure: (§1) First, peripheral blood mononuclear cells (PBMC) were separated from whole blood by specific gravity centrifugation. Then, the isolated peripheral blood mononuclear cells were added to RPMI-1640 medium (containing 10% fetal bovine serum, penicillin, streptomycin, L-glutamine, and 2-mercaptoethanol), and cultured in a 96-well plate at 37° C. under 5% CO2 for 0 to 1 hour. The test compound dissolved in dimethyl sulfoxide was added to each well, followed by further culture at 37° C. under 5% CO2 for 1 hour. A medium containing only dimethyl sulfoxide instead of the test compound was added to the control well. […]
(§2) The measurement results obtained by measuring the TNFα inhibitory activity and IL-5 inhibitory activity (50% inhibitory concentration) of the test compounds by the above method were evaluated in accordance with the following evaluated basis; A: less than 10 nM, B: 10 nM or more and less than 100 nM, and C: 100 nM or more. In addition, the measurement results obtained by measuring the IL-17A inhibitory activity, IL-23 inhibitory activity, IL-4 inhibitory activity, and IL-13 inhibitory activity (50% inhibitory concentration) of the test compounds were evaluated in accordance with the following evaluated basis; A: less than 500 nM, B: 500 nM or more and less than 5000 nM, and C: 5000 nM or more.

[1] = tested on: SU-DHL-4 (blood cancer (lymphoma)); experiment: Antitumor activity: growth inhibition of SU-DHL-4; conditions: Homo sapiens, 120 h; SU-DHL-4, culturing for 5 days; read-out: 50% growth inhibitory concentration
Procedure: (§3) As antitumor activity, 50% growth inhibitory concentration of various cancer cells (CEM-C1 (blood cancer (leukemia)), SU-DHL-4 (blood cancer (lymphoma)), A549 (lung cancer), HCT-116 (colorectal cancer), and Daoy (brain tumor)) was calculated as follows. First, each of the above cancer cells was seeded on a 384-well plate and cultured overnight at 37° C. under 5% CO2. After that, the test compound was added at various concentrations on the next day, and each number of cells was measured after culturing for 5 days. The 50% growth inhibitory concentration was defined as the test compound concentration at which the number of cells measured is an intermediate value between the number of cells after culture for 5 days under the same conditions without the addition of the test compound and the number of cells at the time of seeding (before the start of culture). The measurement results obtained by measuring the 50% growth inhibitory concentration of the test compound by the above method were evaluated in accordance with the following evaluated basis; A: less than 10 μM, B: 10 μM or more and less than 50 μM, and C: 50 μM or more. As a result of using apremilast as the test compound, the evaluation was C in all cancer cells. On the other hand, as a result of using the compound obtained in Example 248 as the test compound, the evaluation was A in all cancer cells.

IL-5 = experiment: Cytokine suppression using whole human blood: IL-5 (CytoStim and CD28 antibody stimulus); conditions: read-out: IL-5 Inhibitory Activity, Human Whole Blood (Test Example 3)
Procedure: (§4) The test compound dissolved in dimethyl sulfoxide was added to a 96-well plate, and RPMI-1640 medium and human peripheral blood containing sodium heparin were added, followed by culture at 37° C. under 5% CO2 for 1 hour. A medium containing only dimethyl sulfoxide instead of the test compound was added to the control well. […]
(§5) After collecting the culture supernatant after culturing, the amount of each cytokine was measured by the sandwich ELISA method. […]
as §2, with “100” for “10”, “500” for “100”, “activity and” for “activity, IL-23 inhibitory activity,”, “IL-4” for “IL-4 inhibitory activity, and IL-13”

A549 (lung cancer) = experiment: Antitumor activity: growth inhibition of A549; conditions: Homo sapiens, 120 h; A549, culturing for 5 days; read-out: 50% growth inhibitory concentration
Procedure: as §3

IL-17A = experiment: Cytokine suppression using human peripheral blood mononuclear cells: IL-17A; conditions: human PBMC, concanavalin A 20 μg/mL; read-out: IL-17A Inhibitory Activity, Human PBMC (Test Example 4)
Procedure: as §1, §2

[2] = tested on: CEM-C1 (blood cancer (leukemia)); experiment: Antitumor activity: growth inhibition of CEM-C1; conditions: 120 h; CEM-C1, culturing for 5 days; read-out: 50% growth inhibitory concentration
Procedure: as §3

Daoy (brain tumor) = experiment: Antitumor activity: growth inhibition of Daoy; conditions: Homo sapiens, 120 h, culturing for 5 days, read-out: 50% growth inhibitory concentration
Procedure: as §3

IL-4 = experiment: Cytokine suppression using whole human blood: IL-4 (CytoStim and CD28 antibody stimulus); conditions: read-out: IL-4 Inhibitory Activity, Human Whole Blood (Test Example 3)
Procedure: as §4, §5
as §2, with “100” for “10”, “500” for “100”, “activity and” for “activity, IL-23 inhibitory activity,”, “IL-4” for “IL-4 inhibitory activity, and IL-13”

SMILES	IC50 (IL-13) [µM]	IC50 [1] [µM]	IC50 (IL-5) [µM]	IC50 (A549 (lung cancer)) [µM]	IC50 (IL-17A) [µM]	IC50 [2] [µM]	IC50 (Daoy (brain tumor)) [µM]	IC50 (IL-4) [µM]
CCOc1cc([C@@H](CS(C)(=O)=O)N2C(=O)c3cccc(NC(C)=O)c3C2=O)ccc1OC [apremilast, reference compound]	≥ 5	≥ 50	≥ 5	≥ 50	0.5 to 5	≥ 50	≥ 50	≥ 5
CC(C)(O)C(F)(F)Oc1ccc(-c2nccs2)c2oc(N3CC4CC(C3)N4)nc12 [Example 248, 1-((2-(3,6-Diazabicyclo[3.1.1]heptan-3-yl)-7-(thiazol-2-yl)benzo[d]oxazol-4-yl)oxy)-1,1-difluoro-2-methylpropan-2-ol]	< 0.5	< 10	< 0.5	< 10	< 0.5	< 10	< 10	< 0.5
